Test results reported in ChEMBL document CHEMBL5576060, “Discovery of acetophenone/piperazin-2-one hybrids as selective anti-TNBC cancer agents by causing DNA damage” (Bioorg Med Chem Lett, 2024).
Activity calls are given as the source filed them. The calls are words filed in the database; no cut-off is given here.

What was measured:
MDA-MB-468 [1] = test: Antiproliferative activity against human MDA-MB-468 cells assessed as inhibition of cell growth at 10 uM incubated for 72 hrs; type: functional
BT-474 [2] = test: Effect on HSP70 expression in human BT-474 cells at 20 uM measured for 48 hrs by immunoblot analysis; type: functional, cell-based
BT-474 [3] = test: Effect on P38 expression in human BT-474 cells at 20 uM measured for 48 hrs by immunoblot analysis; type: functional, cell-based
MDA-MB-468 [4] = test: Induction of DNA damage in human MDA-MB-468 cells assessed as increase in p53 expression; type: functional, cell-based; conditions: dose <= 20.0 µM
MCF-10A [5] = test: Effect on P53 expression in human MCF-10A cells at 20 uM measured for 48 hrs by immunoblot analysis; type: functional, cell-based
JIMT-1 [6] = test: Effect on HSP70 expression in human JIMT- 1 cells at 20 uM measured for 48 hrs by immunoblot analysis; type: functional, cell-based
MDA-MB-468 [7] = test: Induction of cell cycle arrest in human MDA-MB-468 cells assessed as accumulation of cells at S phase at 10 uM measured for 48 hrs by PI staining based flow cytometry analysis (reference value: 4.39%); type: functional
SK-BR-3 [8] = test: Effect on P38 expression in human SK-BR-3 cells at 20 uM measured for 48 hrs by immunoblot analysis; type: functional, cell-based
MCF-10A [9] = test: Effect on P38 expression in human MCF-10A cells at 20 uM measured for 48 hrs by immunoblot analysis; type: functional, cell-based
MDA-MB-468 [10] = test: Potency index, ratio of cisplatin IC50 to test compound IC50 for antiproliferative activity against human MDA-MB-468 cells assessed as inhibition of cell growth; type: functional
MDA-MB-468 [11] = test: Induction of cell cycle arrest in human MDA-MB-468 cells assessed as accumulation of cells at S phase at 5 uM measured for 48 hrs by PI staining based flow cytometry analysis (reference value: 4.39%); type: functional
MDA-MB-468 [12] = test: Induction of cell cycle arrest in human MDA-MB-468 cells assessed as accumulation of cells at G2 phase at 5 uM measured for 48 hrs by PI staining based flow cytometry analysis (reference value: 16.4%); type: functional
MDA-MB-468 [13] = test: Induction of cell cycle arrest in human MDA-MB-468 cells assessed as accumulation of cells at S phase at 20 uM measured for 48 hrs by PI staining based flow cytometry analysis (reference value: 4.39%); type: functional
MDA-MB-468 [14] = test: Effect on HSP90 level in human MDA-MB-468 cells upto 20 uM; type: functional, cell-based
MDA-MB-468 [15] = test: Induction of cell cycle arrest in human MDA-MB-468 cells assessed as accumulation of cells at G2 phase at 20 uM measured for 48 hrs by PI staining based flow cytometry analysis (reference value: 16.4%); type: functional
MDA-MB-468 [16] = test: Downregulation of HSP70 expression in human MDA-MB-468 cells upto 20 uM; type: functional, cell-based
MCF-10A [17] = test: Effect on HSP70 expression in human MCF-10A cells at 20 uM measured for 48 hrs by immunoblot analysis; type: functional, cell-based
MCF7 [18] = test: Effect on P38 expression in human MCF7 cells at 20 uM measured for 48 hrs by immunoblot analysis; type: functional, cell-based
BT-474 [19] = test: Effect on P53 expression in human BT-474 cells at 20 uM measured for 48 hrs by immunoblot analysis; type: functional, cell-based
MCF7 [20] = test: Effect on P53 expression in human MCF7 cells at 20 uM measured for 48 hrs by immunoblot analysis; type: functional, cell-based
[21] = Selectivity index, ratio of IC50 for antiproliferative activity against human BT-474 cells assessed as inhibition of cell growth to IC50 for antiproliferative activity against human MDA-MB-468 cells assessed as inhibition of cell growth; type: functional
MDA-MB-468 [22] = test: Effect on HSF-1 level in human MDA-MB-468 cells upto 20 uM; type: functional, cell-based
JIMT-1 [23] = test: Effect on P53 expression in human JIMT- 1 cells at 20 uM measured for 48 hrs by immunoblot analysis; type: functional, cell-based
SK-BR-3 [24] = test: Antiproliferative activity against human SK-BR-3 cells assessed as inhibition of cell growth; type: functional, cell-based
BT-474 [25] = test: Effect on gammaH2AX expression in human BT-474 cells at 20 uM measured for 48 hrs by immunoblot analysis; type: functional, cell-based
[26] = biological target: MAP kinase p38 (Homo sapiens) (UniProt O15264+Q15759+Q16539+P53778); test: Inhibition of P38 phosphorylation in human MDA-MB-468 cells upto 20 uM; type: cell-based
SK-BR-3 [27] = test: Effect on HSP70 expression in human SK-BR-3 cells at 20 uM measured for 48 hrs by immunoblot analysis; type: functional, cell-based
SK-BR-3 [28] = test: Effect on gamma H2AX expression in human SK-BR-3 cells at 20 uM measured for 48 hrs by immunoblot analysis; type: functional, cell-based
JIMT-1 [29] = test: Effect on gammaH2AX expression in human JIMT- 1 cells at 20 uM measured for 48 hrs by immunoblot analysis; type: functional, cell-based
BT-474 [30] = test: Antiproliferative activity against human BT-474 cells assessed as inhibition of cell growth; type: functional, cell-based
MDA-MB-468 [31] = test: Induction of cell cycle arrest in human MDA-MB-468 cells assessed as accumulation of cells at G1 phase at 20 uM measured for 48 hrs by PI staining based flow cytometry analysis (reference value: 80.8%); type: functional
MDA-MB-468 [32] = test: Antiproliferative activity against human MDA-MB-468 cells assessed as inhibition of cell growth; type: functional, cell-based
SK-BR-3 [33] = test: Effect on P53 expression in human SK-BR-3 cells at 20 uM measured for 48 hrs by immunoblot analysis; type: functional, cell-based
JIMT-1 [34] = test: Effect on P38 expression in human JIMT- 1 cells at 20 uM measured for 48 hrs by immunoblot analysis; type: functional, cell-based
JIMT-1 [35] = test: Antiproliferative activity against human JIMT-1 cells assessed as inhibition of cell growth; type: functional, cell-based
MCF-10A [36] = test: Effect on gammaH2AX expression in human MCF-10A cells at 20 uM measured for 48 hrs by immunoblot analysis; type: functional, cell-based
MDA-MB-468 [37] = test: Induction of DNA damage in human MDA-MB-468 cells assessed as increase in accumulation of gammaH2AX level; type: functional, cell-based; conditions: dose <= 20.0 µM
[38] = Antiproliferative activity against human MCF-10A cells assessed as inhibition of cell growth; type: toxicity, cell-based
MDA-MB-468 [39] = test: Induction of cell cycle arrest in human MDA-MB-468 cells assessed as accumulation of cells at G1 phase at 5 uM measured for 48 hrs by PI staining based flow cytometry analysis (reference value: 80.8%); type: functional
MCF7 [40] = test: Effect on HSP70 expression in human MCF7 cells at 20 uM measured for 48 hrs by immunoblot analysis; type: functional, cell-based
MCF7 [41] = test: Antiproliferative activity against human MCF7 cells assessed as inhibition of cell growth; type: functional, cell-based
MDA-MB-468 [42] = test: Induction of cell cycle arrest in human MDA-MB-468 cells assessed as accumulation of cells at G1 phase at 10 uM measured for 48 hrs by PI staining based flow cytometry analysis (reference value: 80.8%); type: functional
MDA-MB-468 [43] = test: Induction of cell cycle arrest in human MDA-MB-468 cells assessed as accumulation of cells at G2 phase at 10 uM measured for 48 hrs by PI staining based flow cytometry analysis (reference value: 16.4%); type: functional
MCF7 [44] = test: Effect on gammaH2AX expression in human MCF7 cells at 20 uM measured for 48 hrs by immunoblot analysis; type: functional, cell-based

O=C1Nc2ccccc2N/C1=C\C(=O)c1cccc(OCc2ccccc2)c1
inhibition at 10 µM (MDA-MB-468 [1]): 50%
Activity (BT-474 [2]): inactive
Activity (BT-474 [3]): inactive
Activity (MDA-MB-468 [4]): Dose-Dependent Effect
Activity (MCF-10A [5]): inactive
Activity (JIMT-1 [6]): inactive
Activity (MDA-MB-468 [7]): 13.3%
Activity (SK-BR-3 [8]): inactive
Activity (MCF-10A [9]): inactive
Ratio IC50 (MDA-MB-468 [10]): 2
Activity (MDA-MB-468 [11]): 9.32%
Activity (MDA-MB-468 [12]): 17.4%
Activity (MDA-MB-468 [13]): 20%
Activity (MDA-MB-468 [14]): inactive
Activity (MDA-MB-468 [15]): 22.8%
Activity (MDA-MB-468 [16]): Active
Activity (MCF-10A [17]): inactive
Activity (MCF7 [18]): inactive
Activity (BT-474 [19]): inactive
Activity (MCF7 [20]): inactive
Ratio IC50 [21]: 4.4
Activity (MDA-MB-468 [22]): inactive
Activity (JIMT-1 [23]): inactive
IC50 (SK-BR-3 [24]): > 60 µM
Activity (BT-474 [25]): inactive
inhibition [26]: Active
Activity (SK-BR-3 [27]): inactive
Activity (SK-BR-3 [28]): inactive
Activity (JIMT-1 [29]): inactive
IC50 (BT-474 [30]): 28.7 µM
Activity (MDA-MB-468 [31]): 58.7%
IC50 (MDA-MB-468 [32]): 6.5 µM
Activity (SK-BR-3 [33]): inactive
Activity (JIMT-1 [34]): inactive
IC50 (JIMT-1 [35]): 44.9 µM
Activity (MCF-10A [36]): inactive
Activity (MDA-MB-468 [37]): Dose-Dependent Effect
IC50 [38]: 47.5 µM
Activity (MDA-MB-468 [39]): 75%
Activity (MCF7 [40]): inactive
IC50 (MCF7 [41]): 41.6 µM
Activity (MDA-MB-468 [42]): 69.1%
Activity (MDA-MB-468 [43]): 19.1%
Activity (MCF7 [44]): inactive

O=C1Nc2ccccc2N/C1=C\C(=O)c1ccccc1
inhibition at 10 µM (MDA-MB-468 [1]): 50%
IC50 (SK-BR-3 [24]): > 10 µM
IC50 (BT-474 [30]): > 10 µM
IC50 (MDA-MB-468 [32]): 7.73 µM
IC50 (JIMT-1 [35]): > 10 µM
IC50 [38]: > 10 µM
IC50 (MCF7 [41]): > 10 µM
